According to ChEMBL document CHEMBL3217579, “Prodrug ionic liquids: functionalizing neutral active pharmaceutical ingredients to take advantage of the ionic liquid form” (Medchemcomm, 2013):

Experiments:
[1] = Prodrug conversion in simulated intestinal fluid assessed as acetominophen formation at pH 6.8 after 210 mins; assay type: ADME; conditions: simulated gi fluid, pH 6.8, 3.5 h
[2] = Prodrug conversion in PBS buffer assessed as acetominophen formation at pH 7.4 after 210 mins; assay type: physicochemical; conditions: pH 7.4, 3.5 h
[3] = Prodrug conversion in simulated gastric fluid assessed as acetominophen formation at pH 1.2 after 210 mins; assay type: ADME, Stomach; conditions: simulated gi fluid, pH 1.2, 3.5 h

- Drug metabolism [1]: Active
- Drug metabolism [2]: Active
- Drug metabolism [3]: Active
Compound: CC(=O)Nc1ccc(OC(=O)Cn2cc[n+](C)c2)cc1.[Cl-]
